From patent publication US20190022225A1, “PROTOCOL FOR INCREASING LIFE EXPECTANCY IN A TEST SUBJECT” (Mayo Foundation for Medical Education and Research, priority 2015, published 2019)

Experiments:
[1] = test system: IL-6 in senescent IMR90 cells; assay: IL-6 immunofluorescence and ELISA in irradiated senescent IMR90 cells treated with Nutlin-3a; assay type: cell-based, human
Procedure: Primary human fibroblast (IMR90) cells were induced to senesce by applying 10 Gy of irradiation. Seven days after irradiation (Day 0), cells were treated with 10 μM Nutlin-3a or vehicle (DMSO) for nine days (Day 9). The drug or vehicle was refreshed every three days. Drug/vehicle was removed at Day 9 and the cells were cultured for an additional three days (Day 12). Cells were then fixed with 4% paraformaldehyde and stained by immunofluorescence with a specific anti-IL-6 antibody (R&D, AF-206-NA). Cells were counterstained with DAPI for nuclear visualization. The percent IL-6 positive cells is illustrated in FIG. 12A. IL-6 positive cells were determined in an unbiased manner using CellProfiler software. Three different cultures were assessed. Non-senescent cells had no detectable cells IL-6 production while senescent cells were about 8% positive at day 9 after vehicle (DMSO) treatment (16 days after irradiation). […] At day 12, 3 days after Nutlin-3a was removed and 19 days after irradiation, IL-6 positive cells in the vehicle control were about 9% and Nutlin3a treated cells were less than 1% positive for IL-6.
In another experiment, IMR90 cells were induced to senesce by irradiation (10 Gy). Seven days after irradiation, cells were treated with 10 μM Nutlin-3a or vehicle (DMSO) for nine days (Day 9). The drug or vehicle was refreshed every three days. Drug/vehicle was removed at Day 9 and the cells were cultured for an additional six days. Conditioned media from the treated cells was collected, and IL-6 measurement by ELISA was performed (Perkin Elmer, AL223F). IL-6 levels in culture media were determined by ELISA using a kit according to manufacturer's instructions (AL223F, Perkin Elmer). Cells were fixed with 4% paraformaldehyde and stained by immunofluorescence with a specific anti-IL-6 antibody (R&D, AF-206-NA). The IL-6 level determined by ELISA was normalized to the number of cells in each well. The data are presented in FIG. 22C as a relative level of IL-6 in the treated cells compared to the level in non-senescent cells (NS). […]

[2] = test system: doxorubicin-induced senescent cells in p16-3MR mice; assay: Nutlin-3a treatment of p16-3MR transgenic mice with doxorubicin-induced senescence; assay type: in vivo, mouse; conditions: for cells with DNA damage (γH2AX positive) in lung sections: day 35, versus doxorubicin alone
Procedure: The capability of Nutlin-3a to remove senescent cells in vivo was determined in transgenic p16-3MR mice (see, e.g., International Application Publication No. WO2013/090645). The transgenic mouse comprises a p16^Ink4a promoter operatively linked to a trimodal fusion protein for detecting senescent cells and for selective clearance of senescent cells in these transgenic mice, which is illustrated in FIG. 7. The promoter, p16^Ink4a, which is transcriptionally active in senescent cells but not in non-senescent cells (see, e.g., Wang et al., J. Biol. Chem. 276:48655-61 (2001); Baker et al., Nature 479:232-36 (2011)) was engineered into a nucleic acid construct. 3MR (tri-modality reporter) is a fusion protein containing functional domains of a synthetic Renilla luciferase (LUC), monomeric red fluorescence protein (mRFP), and truncated herpes simplex virus (HSV)-1 thymidine kinase (tTK), which allows killing by ganciclovir (GCV) (see, e.g., Ray et al., Cancer Res. 64:1323-30 (2004))). The 3MR cDNA was inserted in frame with p16 in exon 2, creating a fusion protein containing the first 62 amino acids of p16, but not a full-length wild-type p16 protein. […] The p16^Ink4a gene promoter (approximately […]) was introduced upstream of a nucleotide sequence encoding a trimodal reporter fusion protein. Alternatively, a truncated p16^Ink4a promoter may be used (see, e.g., Baker et al., Nature, supra; International Application Publication No. WO2012/177927; Wang et al., supra).). Thus, the expression of 3MR is driven by the p16^Ink4a promoter in senescent cells only. The detectable markers, LUC and mRFP permitted detection of senescent cells by bioluminescence and fluorescence, respectively. The expression of tTK permitted selective killing of senescent cells by exposure to the pro-drug ganciclovir (GCV), which is converted to a cytotoxic moiety by tTK. Transgenic founder animals, which have a C57B16 background, were established and bred using known procedures for introducing transgenes into animals (see, e.g., Baker et al., Nature 479:232-36 (2011)). Female C57/BL6 p16-3MR mice were randomized into doxorubicin+Nutlin-3a treated or doxorubicin only treated groups (see FIG. 6). Senescence was induced by intraperitoneal administration of doxorubicin at 10 mg/kg to the mice ten days prior to administration of Nutlin-3a (Day −10). Nutlin-3a (25 mg/kg) was administered intraperitoneally daily from day 10 to day 24 post-doxorubicin treatment (Group=9 mice). Control mice (doxorubicin treated) were injected with equal volumes of PBS (Group=3 mice). Luminescence imaging (Xenogen Imaging system) was performed at Day 0 (i.e., 10 days post-doxorubicin treatment) as a baseline for each mouse (100% intensity).
Luminescence imaging of the mice was performed on day 7, 14, 21, 28, and 35 following the initiation of Nutlin-3a treatment. Reduction of luminescence (L) was calculated as: L=(Imaging post-Nutlin-3a treatment)/(Baseline Imaging) %. If L is greater than or equal to 100%, the number of senescent cells was not reduced. If L is less than 100%, then the number of senescent cells was reduced. Every mouse was calculated independently, and background was subtracted from each sample.
Experiments were performed to determine the effect of Nutlin-3a treatment on expression of genes associated with senescence. Groups of female C57/BL6 p16-3MR were treated as described above. Three weeks after the end of Nutlin-3a treatment (day 35), the doxorubicin treated mice (control) (N=3) and doxorubicin+Nutlin-3a-treated mice (N=6) were sacrificed. Skin and fat biopsies were collected for RNA extraction; fat biopsies were collected for detection of senescence-associated β-galactosidase; and lungs were flash frozen in cryoprotectant OCT media for cryostat sectioning. […]

## COc1ccc(C2=N[C@@H](c3ccc(Cl)cc3)[C@@H](c3ccc(Cl)cc3)N2C(=O)N2CCNC(=O)C2)c(OC(C)C)c1 [Nutlin-3a]
[1]; 10 μM for 9 days, then up to 6 days without drug
  IL-6 level (ELISA), fold lower than DMSO treated senescent cells: 5-9 fold
[1]; 10 μM, day 9 (16 days after irradiation)
  percent IL-6 positive cells: below 5%
[1]; day 12, 3 days after drug removal
  percent IL-6 positive cells: less than 1%
[2]; 25 mg/kg intraperitoneally daily, day 10 to 24 post-doxorubicin
  luminescence associated with doxorubicin-induced senescence: reduced luminescence
[2]; day 14, day 28 and day 35 after start of treatment
  luminescence, statistical significance at time points: statistically significant decrease
[2]; day 35, relative to actin mRNA
  mRNA of SASP factors (mmp-3, IL-6) and senescence markers (p21, p16, p53) in skin and fat: reduced expression
[2]
  cells with DNA damage (γH2AX positive) in lung sections: reduced the number of cells with doxorubicin-induced DNA damage
[2]; listed as nutlin-3A
  cells with DNA damage (γH2AX positive) in lung sections: reduced the number of cells with DNA damage
[2]; three weeks after treatment, versus doxorubicin alone
  senescence-associated β-gal intensity in fat biopsies: reduced senescence-associated (SA) β-galactosidase (β-gal) intensity
